The half-life is how long it takes for the measured level to halve.

Type in all cases: in vivo, human
The test system of series [1] is patients with chronic heart failure. The series is described as follows: Dosing study (fixed and weight-based dose). Here is the method: In a dosing study, CD-NP was administered to patients with chronic heart failure. The amount of CD-NP administered was either a set amount (in μg/hr) regardless of the patient's weight, or was varied based on the patient's weight.
In FIG. 10a, the steady state average (SS Avg) serum concentration of CD-NP in pg/mL is plotted against patient weight for patients who received low (18 μg/hr) and medium (24 μg/hr) doses of CD-NP.
The placebo group had no significant change in SBP over the course of the study. […] In one aspect, the SBP decrease for doses 24 μg/hr is insufficient to cause a risk of hypotension. […] The weight-based group received a dose that depended on the patients weight. Using PK data, for example the linear fit of data from FIG. 10a, the dose was adjusted to give a predicted serum concentration of 500 pg/mL.
As depicted in FIG. 12, the concentration of CD-NP in serum vs. time after initial dosing for patients on a low dose and a medium dose.

Series [2] deals with healthy subjects. The series is described as follows: clinical.
Series [3] is described as follows: clinical. The settings on record: human, in vivo; read-out: terminal elimination half-life.
In series [4] the test system is patients hospitalized with acute heart failure requiring hemodynamic monitoring. The series is described as follows: Hemodynamic Monitoring Phase 2a clinical study (Hemo Study, NIL-CDNP-CT003). Here is the method: Another exemplary study using CD-NP was a multi-center, open-label Phase 2a clinical study of CD-NP in patients hospitalized with acute heart failure requiring hemodynamic monitoring (Hemo Study, or NIL-CDNP-CT003). This study considered the efficacy of 8 hours of intravenous administration of CD-NP on changes in cardiac output and pulmonary capillary wedge pressure (PCWP, or wedge pressure).
Stabilized acute heart failure patients requiring hemodynamic monitoring, and receiving standard-of-care heart failure medications (i.e., furosemide infusion), received an initial 8-hour CD-NP infusion followed by a 14-hour washout period, and then a further 8-hour CD-NP infusion. Hemodynamic measurements were collected for an additional 8 hours and safety measurements were collected for a further 2 days.
Patients were enrolled into one of two sequential cohorts (Cohort A and B) which could include up to 10 evaluable patients in each cohort. Cohort A received 8 hours of 3 ng/kg/min CD-NP, followed by a 14 hour wash-out period, and then 8 hours of 10 ng/kg/min CD-NP. Cohort B received 8 hours of 1 ng/kg/min CD-NP, followed by a 14 hour wash-out period, and then 8 hours of 20 ng/kg/min CD-NP.
The first 2 hours, (−2 to 0) represent time before administration of CD-NP. Hours 0 to 38 represent time during the CD-NP dosing regimen discussed above.

Each structure is given as a SMILES string. Where a SMILES comes first, the peptide text is derived from it. Bridges are numbered along the chain shown (N, C = ends).

Regarding `CC[C@H](C)[C@@H]1NC(=O)[C@H](CCCNC(=N)N)NC(=O)[C@H](CC(=O)O)NC(=O)[C@H](CCCCN)NC(=O)[C@H](CC(C)C)NC(=O)CNC(=O)[C@H](Cc2ccccc2)NC(=O)[C@@H](NC(=O)CNC(=O)[C@H](CCCCN)NC(=O)[C@H](CO)NC(=O)[C@H](CC(C)C)NC(=O)CN)CSSC[C@@H](C(=O)N2CCC[C@H]2C(=O)N[C@@H](CO)C(=O)N[C@@H](CC(C)C)C(=O)N[C@@H](CCCNC(=N)N)C(=O)N[C@@H](CC(=O)O)C(=O)N2CCC[C@H]2C(=O)N[C@@H](CCCNC(=N)N)C(=O)N2CCC[C@H]2C(=O)N[C@@H](CC(N)=O)C(=O)N[C@@H](C)C(=O)N2CCC[C@H]2C(=O)N[C@@H](CO)C(=O)N[C@H](C(=O)N[C@@H](CO)C(=O)N[C@@H](C)C(=O)O)[C@@H](C)O)NC(=O)CNC(=O)[C@H](CC(C)C)NC(=O)CNC(=O)[C@H](CO)NC(=O)[C@H](CCSC)NC(=O)[C@H](CO)NC(=O)CNC1=O` [CD-NP, cenderitide] (H-GLSKGCFGLKDRIGSMSGLGCPSLRDPRPNAPSTSA-OH; disulfide 6-21; N-terminus and C-terminus assumed), the “area under the curve (AUC) vs patient weight” value in series [1] (FIG. 10b) was “decreases with increasing patient weight”. The “change in SBP” value in series [1] (high dose 36 μg/hr (600 ng/min)) is on record as “decrease in SBP that could possibly cause hypotension”. Moreover, the “steady state average (SS Avg) serum concentration vs patient weight” value in series [1] (low (18 μg/hr) and medium (24 μg/hr) doses, FIG. 10a) was “decreases with increasing patient weight”. Moreover, in series [2] (17.5 ng/kg/min, vs placebo arm), the “orthostatic hypotension immediately after the infusion” value is given as “more events were observed in the CD-NP arm”. In addition, the “subjects with symptomatic hypotension in association with orthostatic challenge immediately post-infusion” value in series [2] (25 ng/kg/min) is listed as “two out of four”. Further, the “symptomatic hypotension during CD-NP dosing” value in series [2] (during dosing) is given as “did not induce symptomatic hypotension”. Also, the “maximum tolerated dose (MTD)” value in series [2] (healthy subjects, 10, 17.5 and 25 ng/kg/min tested) came out at 17.5 ng/kg/min. The “time to steady state of natriuretic peptide” value in series [2] (infusion) was in the range of 1 to 2 h. For the same compound, the half-life in series [3] is 15 to 20 min. Besides, the “SBP below 90 mmHg” value in series [4] (20 ng/kg/min, 8 h infusion, FIG. 4b) is “one patient had a transient dip in SBP below 90 mmHg”. Also, the well tolerated dose result in series [4] (previous studies, co-administered with furosemide to stabilized heart failure patients) was “up to 20 ng/kg/min”.

The values are drawn from US9314507B2, “Methods of treatment of heart failure with natriuretic peptides” (Capricor Therapeutics, INC., priority 2010, dated 2016).
